Target: T1, Mer (Homo sapiens, UniProt Q12866)
T1 construct: host or cells: 293A cells (Thermo Fisher #R70507)
T1 sequence (Q12866 21-999): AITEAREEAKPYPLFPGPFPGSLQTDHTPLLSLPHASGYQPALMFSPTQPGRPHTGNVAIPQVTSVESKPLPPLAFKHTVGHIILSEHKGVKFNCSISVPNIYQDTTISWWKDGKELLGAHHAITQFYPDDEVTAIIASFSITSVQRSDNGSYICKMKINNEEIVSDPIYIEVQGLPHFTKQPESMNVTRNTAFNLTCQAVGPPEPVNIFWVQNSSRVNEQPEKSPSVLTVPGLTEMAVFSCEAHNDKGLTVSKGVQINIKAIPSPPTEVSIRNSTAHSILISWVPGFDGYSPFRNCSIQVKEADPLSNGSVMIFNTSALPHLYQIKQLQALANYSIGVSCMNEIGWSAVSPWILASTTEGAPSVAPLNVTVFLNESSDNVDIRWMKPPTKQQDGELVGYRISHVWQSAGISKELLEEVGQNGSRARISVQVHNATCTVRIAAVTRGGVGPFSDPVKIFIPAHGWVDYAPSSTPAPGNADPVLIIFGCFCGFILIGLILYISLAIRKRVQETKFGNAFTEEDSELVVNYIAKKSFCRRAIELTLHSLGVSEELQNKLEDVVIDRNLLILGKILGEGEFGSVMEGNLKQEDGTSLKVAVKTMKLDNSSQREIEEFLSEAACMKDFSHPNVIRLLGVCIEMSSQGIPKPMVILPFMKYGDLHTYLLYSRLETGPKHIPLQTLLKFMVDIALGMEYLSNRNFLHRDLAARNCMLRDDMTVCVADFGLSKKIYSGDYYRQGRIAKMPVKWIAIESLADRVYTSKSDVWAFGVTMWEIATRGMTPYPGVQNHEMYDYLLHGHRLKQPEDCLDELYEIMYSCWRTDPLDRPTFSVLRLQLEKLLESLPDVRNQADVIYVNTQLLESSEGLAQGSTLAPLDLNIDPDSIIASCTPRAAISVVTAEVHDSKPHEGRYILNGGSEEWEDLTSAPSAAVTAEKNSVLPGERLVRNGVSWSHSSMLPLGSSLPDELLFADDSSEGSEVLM
Experiment: Mer autophosphorylation ELISA in transient transfected 293A cells
Type: cell-based
Conditions: cellular activity; MERTK-transfected 293A cells, phospho-Mer ELISA
In short: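 293A cells transiently transfected with human MERTK DNA, then treated 1 h with 8-point compound dilutions in serum-free medium (0.3% DMSO). Phospho-Mer in lysates quantified by sandwich ELISA against phospho-Mer standard; normalised to DMSO (100%) and reference inhibitor (0%), IC50 from 4-parameter logistic fit.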

An IC50 of 10 to 100 nM was found for `Cc1cc2c(Oc3ccc(NC(=O)C4(C(=O)Nc5ccc(F)cc5)CC4)cc3)ccnc2cc1-c1cc[nH]n1` [Compound 107, 1-N′-(4-Fluorophenyl)-1-N-[4-[6-methyl-7-(1H-pyrazol-3-yl)quinolin-4-yl]oxyphenyl]cyclopropane-1,1-dicarboxamide] in this work.
An IC50 of 10 to 100 nM was found for `O=C(Nc1ccc(F)cc1)C1(C(=O)Nc2ccc(Oc3ccnc4cc(-c5ccn(CF)n5)ccc34)cc2)CC1` [Compound 102, 1-N-[4-[7-[1-(Fluoromethyl)pyrazol-3-yl]quinolin-4-yl]oxyphenyl]-1-N′-(4-fluorophenyl)cyclopropane-1,1-dicarboxamide] in this work.
An IC50 of 10 to 100 nM was found for `O=C(Nc1ccc(F)cc1)C1(C(=O)Nc2ccc(Oc3ccnc4cc(-c5cnn(CF)c5)ccc34)cc2)CC1` [Compound 94, 1-N-[4-[7-[1-(Fluoromethyl)pyrazol-4-yl]quinolin-4-yl]oxyphenyl]-1-N′-(4-fluorophenyl)cyclopropane-1,1-dicarboxamide] in this work.
An IC50 of 10 to 100 nM was found for `CC(=O)N1CCC(c2ccc3c(Oc4ccc(NC(=O)C5(C(=O)Nc6ccc(F)cc6)CC5)cc4)ccnc3c2)C1` (stereo not drawn) [Compound 92, 1-N-[4-[7-(1-Acetylpyrrolidin-3-yl)quinolin-4-yl]oxyphenyl]-1-N′-(4-fluorophenyl)cyclopropane-1,1-dicarboxamide] in this work.
An IC50 of 100 to 300 nM was found for `Cc1ccn(-c2ccc3c(Oc4ccc(NC(=O)C5(C(=O)Nc6ccc(F)cc6)CC5)cc4)ccnc3c2)n1` [Compound 91, 1-N′-(4-Fluorophenyl)-1-N-[4-[7-(3-methylpyrazol-1-yl)quinolin-4-yl]oxyphenyl]cyclopropane-1,1-dicarboxamide] in this work.
An IC50 of 100 to 300 nM was found for `O=C(Nc1ccc(F)cc1)C1(C(=O)Nc2ccc(Oc3ccnc4cc(-c5cc6ccccn6n5)ccc34)cc2)CC1` [Compound 104, 1-N′-(4-Fluorophenyl)-1-N-[4-(7-pyrazolo[1,5-a]pyridin-2-ylquinolin-4-yl)oxyphenyl]cyclopropane-1,1-dicarboxamide] in this work.
An IC50 of at most 10 nM was found for `Nc1cc(-c2ccc3c(Oc4ccc(NC(=O)C5(C(=O)Nc6ccc(F)cc6)CC5)cc4)ccnc3c2)ccn1` [Compound 97, 1-N-[4-[7-(2-Aminopyridin-4-yl)quinolin-4-yl]oxyphenyl]-1-N′-(4-fluorophenyl)cyclopropane-1,1-dicarboxamide] in this work.
An IC50 of 10 to 100 nM was found for `Cc1cc(-c2ccc3c(Oc4ccc(NC(=O)C5(C(=O)Nc6ccc(F)cc6)CC5)cc4)ccnc3c2)nn1C` [Compound 101, 1-N-[4-[7-(1,5-Dimethylpyrazol-3-yl)quinolin-4-yl]oxyphenyl]-1-N′-(4-fluorophenyl)cyclopropane-1,1-dicarboxamide] in this work.
An IC50 of 10 to 100 nM was found for `Cc1cc2c(Oc3cc(F)c(NC(=O)C4(C(=O)Nc5ccc(F)cc5)CC4)cc3F)ccnc2cc1-c1cnn(C)c1` [Compound 105, 1-N′-[2,5-Difluoro-4-[6-methyl-7-(1-methylpyrazol-4-yl)quinolin-4-yl]oxyphenyl]-1-N-(4-fluorophenyl)cyclopropane-1,1-dicarboxamide] in this work.
An IC50 of 10 to 100 nM was found for `Cc1cc(-c2ccc3c(Oc4ccc(NC(=O)C5(C(=O)Nc6ccc(F)cc6)CC5)cc4)ccnc3c2)n[nH]1` [Compound 99, 1-N′-(4-Fluorophenyl)-1-N-[4-[7-(5-methyl-1H-pyrazol-3-yl)quinolin-4-yl]oxyphenyl]cyclopropane-1,1-dicarboxamide] in this work.
An IC50 of 10 to 100 nM was found for `Nc1n[nH]cc1-c1ccc2c(Oc3ccc(NC(=O)C4(C(=O)Nc5ccc(F)cc5)CC4)cc3)ccnc2c1` [Compound 90, 1-N-[4-[7-(3-Amino-1H-pyrazol-4-yl)quinolin-4-yl]oxyphenyl]-1-N′-(4-fluorophenyl)cyclopropane-1,1-dicarboxamide] in this work.
An IC50 of 10 to 100 nM was found for `Cc1cn(-c2ccc3c(Oc4ccc(NC(=O)C5(C(=O)Nc6ccc(F)cc6)CC5)cc4)ccnc3c2)cn1` [Compound 87, 1-N′-(4-Fluorophenyl)-1-N-[4-[7-(4-methylimidazol-1-yl)quinolin-4-yl]oxyphenyl]cyclopropane-1,1-dicarboxamide] in this work.
An IC50 of 100 to 300 nM was found for `O=C(Nc1ccc(F)cc1)C1(C(=O)Nc2ccc(Oc3ccnc4cc(-c5ccn(C6CC6)n5)ccc34)cc2)CC1` [Compound 98, 1-N-[4-[7-(1-Cyclopropylpyrazol-3-yl)quinolin-4-yl]oxyphenyl]-1-N′-(4-fluorophenyl)cyclopropane-1,1-dicarboxamide] in this work.
An IC50 of 100 to 300 nM was found for `CS(=O)(=O)N1CCC(c2ccc3c(Oc4ccc(NC(=O)C5(C(=O)Nc6ccc(F)cc6)CC5)cc4)ccnc3c2)C1` (stereo not drawn) [Compound 93, 1-N′-(4-Fluorophenyl)-1-N-[4-[7-(1-methylsulfonylpyrrolidin-3-yl)quinolin-4-yl]oxyphenyl]cyclopropane-1,1-dicarboxamide] in this work.
An IC50 of 10 to 100 nM was found for `O=C(Nc1ccc(F)cc1)C1(C(=O)Nc2ccc(Oc3ccnc4cc(C5=CCOC5)ccc34)cc2)CC1` [Compound 95, 1-N-[4-[7-(2,5-Dihydrofuran-3-yl)quinolin-4-yl]oxyphenyl]-1-N′-(4-fluorophenyl)cyclopropane-1,1-dicarboxamide] in this work.
An IC50 of 10 to 100 nM was found for `Cc1cnn(-c2ccc3c(Oc4ccc(NC(=O)C5(C(=O)Nc6ccc(F)cc6)CC5)cc4)ccnc3c2)c1` [Compound 96, 1-N′-(4-Fluorophenyl)-1-N-[4-[7-(4-methylpyrazol-1-yl)quinolin-4-yl]oxyphenyl]cyclopropane-1,1-dicarboxamide] in this work.
An IC50 of 100 to 300 nM was found for `O=C(Nc1ccc(F)cc1)C1(C(=O)Nc2ccc(Oc3ccnc4cc(-c5ccccc5)ccc34)cc2)CC1` [Compound 55, 1-N′-(4-Fluorophenyl)-1-N-[4-(7-phenylquinolin-4-yl)oxyphenyl]cyclopropane-1,1-dicarboxamide] in this work.
An IC50 of 100 to 300 nM was found for `Cc1cc2c(Oc3ccc(NC(=O)C4(C(=O)Nc5ccc(F)cc5)CC4)cc3)ccnc2cc1-c1ccn(C)n1` [Compound 108, 1-N′-(4-Fluorophenyl)-1-N-[4-[6-methyl-7-(1-methylpyrazol-3-yl)quinolin-4-yl]oxyphenyl]cyclopropane-1,1-dicarboxamide] in this work.

Reference: patent publication US12503438B2, “Compounds for the treatment of kinase-dependent disorders” (Exelixis, Inc., priority 2019, dated 2025)
